pIC50: −log10 of the molar value. Read-outs that look alike come from different tables or passages of the source.
Legend:
[1] = system: generation of PGE2 in the whole blood; test: whole blood assay, lipopolysaccharide-induced yield of PGE2 in heparin blood (ELISA); type: cell-based, human; settings: for pIC50: Homo sapiens, read-out: inhibition IC50 onto generation of PGE2 in the whole blood test
Procedure: (§1) Deuterated benzopyran compounds of different concentrations were uniformly mixed with ovine COX-1 and human recombinant COX-2 for incubation for 15 min, respectively, and then the system was added with Heme and ADHP for incubation for another 2 min and finally added with substrate arachidonic acid. The light emission intensity of the reaction product at 595 nm was immediately detected by a microplate reader under exciting light at 530 nm. […] In the whole blood assay, venous blood of healthy donors was collected with a non-anticoagulation tube and a heparin tube, deuterated benzopyran compounds of different concentrations (1×10^−8 to 1×10^−4) were mixed with the blood in the non-anticoagulation tube, the supernatant was collected after the blood was coagulated and then measured by ELISA in terms of the yield of TXB2; and deuterated benzopyran compounds of different concentrations (1×10^−8 to 1×10^−4) were mixed with the blood in the heparin tube, the mixture was added with lipopolysaccharide until the final concentration was 100 μg/mL, mixed uniformly and then kept stand overnight at 37° C., the supernatant was collected by centrifugation and then measured by ELISA in terms of the yield of PGE2.

[2] = system: generation of TXB2 in the whole blood; test: whole blood assay, yield of TXB2 in coagulated blood (ELISA); type: cell-based; settings: Homo sapiens, read-out: inhibition IC50 onto generation of TXB2 in the whole blood test
Procedure: as §1, with “PGE2. […]” for “PGE2.”

[3] = biological target: T1, ovine COX-1 (Ovis aries, UniProt P05979); test: COX-1 enzyme inhibition (ADHP fluorescence); type: biochemical
T1 sequence (P05979 25-600): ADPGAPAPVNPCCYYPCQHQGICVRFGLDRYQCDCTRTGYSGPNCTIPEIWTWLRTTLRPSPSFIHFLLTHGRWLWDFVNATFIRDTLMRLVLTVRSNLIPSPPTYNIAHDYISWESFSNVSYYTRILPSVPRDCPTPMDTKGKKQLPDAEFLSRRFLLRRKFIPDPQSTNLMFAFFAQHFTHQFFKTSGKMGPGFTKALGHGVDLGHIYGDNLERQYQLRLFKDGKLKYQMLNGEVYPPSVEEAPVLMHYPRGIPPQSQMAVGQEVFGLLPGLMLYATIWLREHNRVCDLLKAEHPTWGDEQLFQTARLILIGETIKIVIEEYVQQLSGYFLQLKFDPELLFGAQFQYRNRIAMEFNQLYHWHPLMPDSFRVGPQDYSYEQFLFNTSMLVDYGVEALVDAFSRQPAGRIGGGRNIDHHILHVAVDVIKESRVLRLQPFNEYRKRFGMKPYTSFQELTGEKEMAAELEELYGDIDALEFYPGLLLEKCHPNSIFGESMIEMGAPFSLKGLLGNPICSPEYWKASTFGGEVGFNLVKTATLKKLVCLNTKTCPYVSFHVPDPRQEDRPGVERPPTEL
Procedure: as §1, with “PGE2. […]” for “PGE2.”

[4] = Test on pharmacokinetics and bioavailability of rats; type: in vivo, SD rats; settings: for Vd / BA / AUC / Cmax / Tmax / half-life / t½: male SD rats; for BA: oral, calculated according AUC data; for AUC / Cmax / Tmax / half-life / t½: oral administration; for half-life: read-out: t½ (converted)
Procedure: The blood samples employ acetonitrile to precipitate protein, 16000 rpm*30 min, and the supernatant is used for LC/MS analysis. Data is performed with parameter fitting by DAS2.0, and the bioavailability of oral administration of compounds is calculated according AUC data.

[5] = biological target: T2, human recombinant COX-2 (Homo sapiens, UniProt P35354); test: COX-2 enzyme inhibition (ADHP fluorescence); type: biochemical; settings: for pIC50: human recombinant COX-2, 15 min incubation
T2 sequence (P35354 18-604): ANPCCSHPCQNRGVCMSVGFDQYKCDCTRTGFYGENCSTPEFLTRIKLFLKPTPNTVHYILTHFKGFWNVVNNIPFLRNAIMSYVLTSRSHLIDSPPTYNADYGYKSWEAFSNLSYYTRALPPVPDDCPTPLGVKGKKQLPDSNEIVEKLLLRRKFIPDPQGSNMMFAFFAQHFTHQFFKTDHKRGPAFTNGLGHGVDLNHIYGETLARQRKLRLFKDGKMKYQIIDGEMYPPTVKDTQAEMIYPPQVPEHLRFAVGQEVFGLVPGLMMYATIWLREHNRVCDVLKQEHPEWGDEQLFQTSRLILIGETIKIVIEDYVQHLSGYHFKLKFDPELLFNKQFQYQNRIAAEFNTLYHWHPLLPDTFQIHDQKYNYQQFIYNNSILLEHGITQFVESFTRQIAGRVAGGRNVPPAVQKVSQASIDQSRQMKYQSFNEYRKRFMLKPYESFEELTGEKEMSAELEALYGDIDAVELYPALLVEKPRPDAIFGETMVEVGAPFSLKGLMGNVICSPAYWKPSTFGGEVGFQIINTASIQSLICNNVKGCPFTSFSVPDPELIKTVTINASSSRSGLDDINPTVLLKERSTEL
Procedure: as §1

[6] = ovine COX-1, 15 min incubation, read-out: Inhibition IC50 COX-1
[7] = rat, plasma, single dose 25 mg/kg
[8] = rat, plasma, single dose 25 mg/kg, read-out: Cmax
[9] = rat, plasma, single dose 25 mg/kg, read-out: Tmax
[10] = blood of healthy donors, heparin tube, lipopolysaccharide 100 μg/mL, overnight at 37° C.
[11] = blood of healthy donors, non-anticoagulation tube
[12] = rat, plasma, single dose 10 mg/kg
[13] = rat, plasma, single dose 2.5 mg/kg
[14] = rat, plasma, single dose 2.5 mg/kg, read-out: Cmax
[15] = rat, plasma, single dose 2.5 mg/kg, read-out: Tmax

Row | SMILES | pIC50 [1] | pIC50 [2] | pIC50 [3, 6] | pIC50 [1, 10] | pIC50 [2, 11] | Vd ([4]; single dose 10 mg/kg) [L/kg] | Cmax ([4]; single dose 10 mg/kg) [ng/mL] | Tmax ([4]; single dose 10 mg/kg) [h] | t½ ([4]; single dose 10 mg/kg) [h] | BA ([4]; single dose 10 mg/kg) [%] | AUC [4, 12] [ng·h/mL] | pIC50 [5] | BA ([4]; single dose 2.5 mg/kg) [%] | AUC [4, 13] [ng·h/mL] | Vd ([4]; single dose 2.5 mg/kg) [L/kg] | Cmax [4, 14] [ng/mL] | Tmax [4, 15] [h] | half-life [4, 13] [h] | further results
1 | [2H]C([2H])([2H])c1ccc2c(c1)C=C(C(=O)O)C(C(F)(F)F)O2 (stereo not drawn) [GIBH-1004, 6-(methyl-D3)-2-(trifluoromethyl)-2H-chromence-3-carboxylic acid] | 4.17 | < 4.00 | < 4.00 | – | – | – | – | – | – | – | – | – | – | – | – | – | – | – | Vd ([4]; single dose 25 mg/kg): 0.58 L/kg; BA ([4]; single dose 25 mg/kg): 46.1%; AUC [4, 7]: 181000 ng·h/mL; Cmax [4, 8]: 34200 ng/mL; Tmax [4, 9]: 0.563 h; half-life [4, 7]: 2.88 h
2 | [2H]C([2H])([2H])C([2H])([2H])c1cc(OC(F)(F)F)cc2c1OC(C(F)(F)F)C(C(=O)O)=C2 (stereo not drawn) [GIBH-1006, 8-(ethyl-D5)-6-(trifluoromethoxy)-2-(trifluoromethyl)-2H-chromene-3-carboxylic acid] | – | – | < 4.00 | 4.10 | 4.69 | – | – | – | – | – | – | – | – | – | – | – | – | – | Vd ([4]; single dose 25 mg/kg): 0.68 L/kg; BA ([4]; single dose 25 mg/kg): 78.6%; AUC value compared among the compounds (in words) ([4]; rat PK, doses differ between compounds): highest; AUC [4, 7]: 511000 ng·h/mL; Cmax [4, 8]: 29500 ng/mL; Tmax [4, 9]: 1.62 h; half-life [4, 7]: 9.54 h
3 | [2H]C([2H])([2H])c1cc2c(c(C([2H])([2H])[2H])c1Cl)C=C(C(=O)O)C(C(F)(F)F)O2 (stereo not drawn) [GIBH-1008, 6-chloro-5,7-(dimethyl-D6)-2-(trifluoromethyl)-2H-chromene-3-carboxylic acid] | – | – | < 4.00 | 4.11 | 4.19 | 0.26 | 20900 | 1.167 | 2.1 | 92.8 | 118000 | – | – | – | – | – | – | – | pIC50 ([3]; read-out: IC50 value of COX-1): < 4.00
4 | [2H]C([2H])([2H])c1cc2c(c(C([2H])([2H])[2H])c1Br)C=C(C(=O)O)C(C(F)(F)F)O2 (stereo not drawn) [GIBH-1010, 6-bromo-5,7-(dimethyl-D6)-2-(trifluoromethyl)-2H-chromene-3-carboxylic acid] | – | – | < 4.00 | < 4.00 | 4.41 | 0.57 | 21399 | 0.5 | 3.35 | 111.8 | 84800 | 7.17 | – | – | – | – | – | – | –
5 | [2H]C([2H])([2H])c1cc(Cl)cc2c1OC(C(F)(F)F)C(C(=O)O)=C2 (stereo not drawn) [GIBH-1012, 6-chloro-8-(methyl-D3)-2-(trifluoromethyl)-2H-chromene-3-carboxylic acid] | < 4.00 | < 4.00 | < 4.00 | – | – | – | – | – | – | – | – | – | 110.7 | 38900 | – | – | – | – | Cmax ([4]; single dose 2.5 mg/kg): 8945 ng/mL; Tmax ([4]; single dose 2.5 mg/kg): 0.5 h; t½ ([4]; single dose 2.5 mg/kg): 3.37 h
6 | [2H]C([2H])([2H])c1cc(Br)cc2c1OC(C(F)(F)F)C(C(=O)O)=C2 (stereo not drawn) [GIBH-1014, 6-bromo-8-(methyl-D3)-2-(trifluoromethyl)-2H-chromene-3-carboxylic acid] | 4.34 | < 4.00 | 4.50 | – | – | 0.53 | 35300 | 0.417 | 5.2 | 107.4 | 143000 | 7.43 | – | – | – | – | – | – | selectivity to the inhibition of COX-2 enzyme of blood cells ([1]; human whole blood COX enzyme activity test): better selectivity; ratio of the selectivity to COX-2 to the selectivity to COX-1 ([5]; from enzyme IC50 values COX-1/COX-2): 862
7 | [2H]C([2H])([2H])c1cc2c(c(C([2H])([2H])[2H])c1)OC(C(F)(F)F)C(C(=O)O)=C2 (stereo not drawn) [GIBH-1016, 6,8-(dimethyl-D6)-2-(trifluoromethyl)-2H-chromene-3-carboxylic acid] | < 4.00 | < 4.00 | – | – | – | – | – | – | – | – | – | – | 65.1 | 4330 | 0.94 | 4400 | 0.187 | 1.04 | pIC50 [3]: < 4.00
8 | [2H]C([2H])([2H])c1cc(Cl)c2c(c1)C=C(C(=O)O)C(C(F)(F)F)O2 (stereo not drawn) [GIBH-1018, 8-chloro-6-(methyl-D3)-2-(trifluoromethyl)-2H-chromene-3-carboxylic acid] | 4.10 | < 4.00 | < 4.00 | – | – | – | – | – | – | – | – | – | 90.6 | 28300 | 0.31 | 11800 | 0.271 | 2.43 | –
9 | [2H]C([2H])([2H])c1c(Br)c2c(c(C([2H])([2H])[2H])c1Br)C=C(C(=O)O)C(C(F)(F)F)O2 (stereo not drawn) [GIBH-1051, 6,8-dibromo-5,7-(dimethyl-D6)-2-(trifluoromethyl)-2H-chromene-3-carboxylic acid] | < 4.00 | 4.15 | 5.26 | – | – | – | – | – | – | – | – | 7.08 | 63.7 | 13000 | 1.004 | 4480 | 0.688 | 1.76 | –

Reference: patent US9371305B2, “Deuterated benzopyran compounds and application thereof” (Guangzhou Institutes of Biomedicine And Health, Chinese …, priority 2012, dated 2016)
